Test results: US8927015B2, “Formulations for delivering insulin” (Emisphere Technologies, Inc., priority 2006, dated 2015)

What was measured:
[1] = for Solubility: pH 6.8
Experimental: Excess insulin was added to buffer solutions at pH values of 1, 2, 3, 4, 5, 6, 6.8, and 7.4. Vials containing the solutions were shaken in a constant temperature water bath, and visually observed at regular time intervals. Samples were taken at 2 hours, 4 hours, and 24 hours and analyzed by a stability-indicating HPLC method.

[2] = Solubility of insulin in aqueous solutions containing a delivery agent
Experimental: The solubility of insulin was investigated in aqueous solutions containing varying amounts of the delivery agent compound sodium 4-CNAB. The aqueous solution containing delivery agent was adjusted to pH 1 by the addition of 1N HCl and excess insulin was added to the acidified solution. Thereafter, the pH of the solution was increased by the addition of increments of 1N NaOH. Vials containing the suspensions were left without shaking or sonicating for 1-2 hours. The supernatant was analyzed for insulin and sodium 4-CNAB using an HPLC method and the pH was recorded. […] All of these experiments were performed at room temperature.

[3] = Dissolution of insulin pellet (USP Dissolution Type II paddle); format: physicochemical
Experimental: A 300 mg pellet of insulin was prepared in a die. The surface area of the pellet available to the dissolution medium was 0.484 cm^2. The pellet was compressed at 1200-1400 lbs on a Carver press to form discs. The die was then attached to the shaft of a dissolution apparatus (USP Dissolution Type II (Paddle) made by Vankel). The die was rotated at 100 rpm and then immersed in 500 mL of degassed dissolution medium maintained at 37° C. Dissolution experiments were conducted in water and in aqueous solutions containing sodium 4-CNAB. Samples of the solutions were taken over two hours and analyzed by HPLC. FIGS. 3 and 4 show dissolution profiles of insulin in deionized (DI) water and in 10 mg/mL sodium 4-CNAB solution, respectively.

## insulin type #1: recombinant human zinc insulin obtained from Diosynth France
[1]; not observed at pH 1, 2, and 7.4 where dissolution was very rapid for both
  dissolution rate, visual observation: dissolved faster than insulin type #2
[1]
  Solubility: greater than 4 mg/mL

## insulin type #2: recombinant human zinc insulin obtained from Eli Lilly Co.
[1]
  Solubility: > 2000 µg/mL

## OCCN(CCO)CCCCCCCCOc1ccccc1O [HPOD, 8-(2-hydroxyphenoxy)octyldiethanolamine]
[2]; delivery agent 250 mg/mL, pH 3.9, room temperature
  Insulin: >50 mg/mL

## O=C(O)CCCCCCCNC(=O)c1ccccc1O [SNAC, N-(8-[2-hydroxybenzoyl]-amino) caprylic acid]
[2]; delivery agent 150 mg/mL, pH 7.9, room temperature
  Insulin: >200 mg/mL

## Insulin: insulin (recombinant human insulin) whose solubility and dissolution were tested
[2]; None (DI water), pH 6.3, room temperature
  Insulin: 1.14 mg/mL
[3]; 10 mg/mL sodium 4-CNAB dissolution media versus deionized water, 37° C., 100 rpm
  rate of insulin dissolution: significantly greater
[3]; 50 mg/ml sodium 4-CNAB dissolution media, HPLC
  insulin levels in dissolution media: below the detection limits

## O=C(O)CCCNC(=O)c1ccc(Cl)cc1O [Treatment 4-CNAB, 4-[(2-hydroxy-4-chlorobenzoyl)amino]butanoate]
[2]; delivery agent 5 mg/mL, pH of delivery agent solution 6.4, room temperature
  Insulin: 0.5 mg/mL
[2]; delivery agent 10 mg/mL, pH 6.45, room temperature
  Insulin: 1 mg/mL
[2]; delivery agent 50 mg/mL, pH 6.26, room temperature
  Insulin: 11 mg/mL
[2]; delivery agent 50 mg/mL, pH 6.49, room temperature
  Insulin: 44 mg/mL
[2]; delivery agent 100 mg/mL, pH 6.45, room temperature
  Insulin: >110 mg/mL
[2]; delivery agent 100 mg/mL, pH 6.71, room temperature
  Insulin: 86 mg/mL
[2]; delivery agent 150 mg/mL, pH 6.83, room temperature
  Insulin: 187 mg/mL
[2]; delivery agent 200 mg/mL, pH 6.79, room temperature
  Insulin: >135 mg/mL
